Tests used:
[1] = target: T1, L-ornithine N(5)-monooxygenase (Aspergillus fumigatus (strain ATCC MYA-4609 / CBS 101355 / FGSC A1100 / Af293), UniProt E9QYP0); assay: ADP-TAMRA Binding Assay; settings: pH 7
Experimental: The 96 well plates were used, and the reaction volume was 25 μL using 50 mM sodium phosphate buffer (pH 7.0). For the screening, 30 nM of ADP-TAMRA with 2 μM SidA (based on the Bradford assay) and 20 μM of library compound were used, withthe final DMSO concentration at 2%. Fluorescence polarization measurements were performed with excitation at 544 nm and emission at 584 nm, using a wavelength cutoff of 570 nm. Anisotropy values were normalized to the values obtained in the negative control sample: SidA, ADP-TAMRA, and DMSO. The positive control consisted of ADP-TAMRA and DMSO.

[2] = target: T1, L-ornithine N(5)-monooxygenase; assay: SidA Activity Assay; settings: pH 7.5
Experimental: Briefly, this assay consists of the formation of nitrite from hydroxyl amine that is quantified by formation of a chromophore with α-naphthylamine, which has an absorbance maximum at 529 nm. Formation of HO-Orn was quantified using a standard curve with hydroxylamine (25−350 μM). The standard assay contained 25 μL of 100 mM sodium phosphate (pH 7.5), 1 μM SidA, 500 μM L-Orn, and 250 μM NADPH for activity and IC50 determinations. Compound concentration was varied from 0.01 to 1 mM, and the reaction mix contained a final DMSO concentration of 10%. The reaction was started with the addition of NADPH, allowed to proceed for 20 min atRT, and quenched with 13 μL of 2 N HClO4. To identify compounds that caused inhibition by inducing protein aggregation, the IC50 was determined in 100 mM phosphate buffer, pH 7.5, containing 0.1% v/v Triton X-100.23 As some compounds had either an increase or decrease in the color development or had absorbance at a visi

T1 sequence (E9QYP0 whole entry): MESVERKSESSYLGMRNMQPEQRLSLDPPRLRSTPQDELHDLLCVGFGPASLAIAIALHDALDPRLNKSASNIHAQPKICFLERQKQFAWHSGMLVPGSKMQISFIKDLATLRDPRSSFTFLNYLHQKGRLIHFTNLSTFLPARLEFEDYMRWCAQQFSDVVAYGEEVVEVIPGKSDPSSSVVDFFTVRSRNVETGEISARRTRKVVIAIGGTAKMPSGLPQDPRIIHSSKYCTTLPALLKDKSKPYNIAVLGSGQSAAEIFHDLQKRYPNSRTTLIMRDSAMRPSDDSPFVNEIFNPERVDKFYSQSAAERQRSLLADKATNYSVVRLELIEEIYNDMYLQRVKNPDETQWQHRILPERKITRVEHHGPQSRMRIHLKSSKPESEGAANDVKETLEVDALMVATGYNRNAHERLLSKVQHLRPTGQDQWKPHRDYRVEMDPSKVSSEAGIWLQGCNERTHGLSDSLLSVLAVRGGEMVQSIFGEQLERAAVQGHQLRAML

Question: How did the Kd [1] turn out when `CC1=C(O)C(=O)C=C2C1=CC=C1[C@@]2(C)CC[C@@]2(C)[C@@H]3C[C@](C)(C(=O)O)CC[C@]3(C)CC[C@]12C` [Celastrol] was run?
Answer: 1.4 µM

Question: What about the IC50 [2] of the same molecule?
Answer: 11 µM

— BindingDB's records for doi:10.1021/acschembio.6b00666 (Virginia Tech, 2016)
